Experiments:
BT-474 = test: Anticancer activity against human BT-474 cells assessed as cell viability at 1 uM by tryphan blue staining based cell counter analysis relative to control; assay type: functional; settings: read-out: Activity
T47D [1] = test: Anticancer activity against human T47D cells assessed as cell viability at 1 uM by tryphan blue staining based cell counter analysis relative to control; assay type: functional; settings: read-out: Activity
ES-2 = test: Anticancer activity against human ES2 assessed as cell viability at 1 uM by tryphan blue staining based cell counter analysis relative to control; assay type: functional; settings: read-out: Activity
MCF-10A = test: Anticancer activity against human MCF-10A cells assessed as cell viability at 1 uM by tryphan blue staining based cell counter analysis relative to control; assay type: functional; settings: read-out: Activity
MDA-MB-231 [2] = test: Anticancer activity against human MDA-MB-231 cells assessed as cell viability at 1 uM by tryphan blue staining based cell counter analysis relative to control; assay type: functional; settings: read-out: Activity
T47D [3] = test: Anticancer activity against human T47D cells assessed as cell proliferation incubated for 4 days by MTS assay; assay type: functional, cell-based; settings: 96 h
HEK-293T = test: Anticancer activity against human HEK293T cells assessed as cell viability at 1 uM by tryphan blue staining based cell counter analysis relative to control; assay type: functional; settings: read-out: Activity
HeLa = test: Anticancer activity against human HeLa cells assessed as cell viability at 1 uM by tryphan blue staining based cell counter analysis relative to control; assay type: functional; settings: read-out: Activity
MCF7 = test: Anticancer activity against human MCF7 cells assessed as cell viability at 1 uM by tryphan blue staining based cell counter analysis relative to control; assay type: functional; settings: read-out: Activity
MDA-MB-231 [4] = test: Anticancer activity against human MDA-MB-231 cells assessed as cell growth inhibition incubated for 24 hrs; assay type: functional, cell-based; settings: MDA-MB-231, 24 h, pooled result: one value given for 13 cell lines, strains, targets or settings
T47D [5] = test: Anticancer activity against human T47D cells assessed as cell growth inhibition incubated for 24 hrs; assay type: functional, cell-based; settings: pooled result: one value given for 16 cell lines, strains, targets or settings

SMILES	viability at 1 µM (BT-474) [%]	viability at 1 µM (T47D [1]) [%]	viability at 1 µM (ES-2) [%]	viability at 1 µM (MCF-10A) [%]	viability at 1 µM (MDA-MB-231 [2]) [%]	IC50 (T47D [3]) [nM]	viability at 1 µM (HEK-293T) [%]	viability at 1 µM (HeLa) [%]	viability at 1 µM (MCF7) [%]	IC50 (MDA-MB-231 [4]) [nM]	IC50 (T47D [5]) [nM]
Cc1cccc2c1NC(=O)C2(c1ccc(O)cc1)c1ccc(O)cc1	< 20	< 20	< 20	< 20	< 20	15	< 20	< 20	< 20	–	–
O=C1Nc2c(C(F)(F)F)cccc2[C@@]1(c1ccc(O)cc1)c1ccc(OC(F)(F)F)cc1	–	–	–	–	–	–	–	–	–	12400	34

— ChEMBL document CHEMBL5223101, “Evolution of 3-(4-hydroxyphenyl)indoline-2-one as a scaffold for potent and selective anticancer activity” (RSC Med Chem, 2022)
